# Source: patent US6995135B2, “Peptides and peptidomimetics having anti-proliferative activity and/or that augment nucleic acid damaging agents or treatments” (priority 2002, dated 2006)
# “Also recorded” adds a separate entry of the source. Square brackets hold non-standard residues; d marks the D form. Peptide text beside a SMILES is read from it. dPhe(F5) = N[C@H](Cc1c(F)c(F)c(F)c(F)c1F)C(=O)O; dBpa = N[C@H](Cc1ccc(C(=O)c2ccccc2)cc1)C(=O)O; dCha = N[C@H](CC1CCCCC1)C(=O)O
# Tests used:
# Jurkat cells [1] = experiment: G2 checkpoint abrogation in bleomycin treated Jurkat cells, flow cytometry; type: cell-based, human; details: Jurkat cells; with 40 μg/ml bleomycine, 24 hours; dose with detectable G2 checkpoint abrogation
# Experimental: Flow cytometry analysis of G2 checkpoint abrogation was performed using human leukemia derived Jurkat cell line. In brief, cultured cells were treated with various doses of peptide/peptidomimetic and 40 μg/ml bleomycine for 24 hr. The DNA of the cells was stained with propidium iodide and analyzed by flow cytometry.
# The “Appearance of side effect when used alone” indicates the peptide/peptidomimetic dose that produced Jurkat cell cycle disturbance, i.e., the appearance of significant amounts of SubG1 cells (dead cells) or cells in which the DNA content of each varies more than usual. […] The “G2 abrogating dose” indicates the peptide/peptidomimetic dose with 40 μg/ml bleomycine that produced detectable G2 checkpoint abrogation activity following treatment for 24 hours. The “Appearance of side effect when used with colchicine” indicates the peptide/peptidomimetic dose with 5 μg/ml colchicine that produced Jurkat cell cycle disturbance following treatment for 24 hours.
# Jurkat cells [2] = experiment: M phase checkpoint abrogation / non specific toxicity in colchicine treated Jurkat cells, flow cytometry; type: cell-based; details: 0.5 μg/ml colchicine, up to 50 μM of peptide, FIG. 12
# Experimental: Cell-cycle analysis The cell cycle status of the cells treated with bleomycin or adriamcin were analyzed by flow cytometry as described by Kawabe (1997) Nature 385:454–458. In brief, two million cells were re-suspended and incubated in 200 μul Krishan's solution (0.1% Sodium citrate, 50 μg/ml PI, 20 μg/ml RNase A and 0.5% NP-40) for 1 hr at 4° C. and analyzed by a flow cytometry, FACScan™ (Beckton Dickinson, Mountain View, Calif.) with the program CELLQuest™ (Beckton Dickinson).
# Flow cytometry analysis of M phase checkpoint abrogation by the compounds was performed using human T cell leukemia Jurkat cell line treated with colchicine (5 μg/ml or 0.5 μg/ml) and various doses of peptide/peptidomimetics for 24 hr (FIG. 12). The DNA of the cells was stained and analyzed by flow cytometry as described above.
# The “Appearance of side effect when used alone” indicates the peptide/peptidomimetic dose that produced Jurkat cell cycle disturbance, i.e., the appearance of significant amounts of SubG1 cells (dead cells) or cells in which the DNA content of each varies more than usual. […]
# A comparison between G2 checkpoint abrogating activity and non specific toxicity (M checkpoint abrogation) by CB501 was performed. […] The DNA amount in each of the treated cells was analyzed by flow cytometry, as previously described.
# HUVEC [3] = experiment: G2 checkpoint abrogation with cis-platin, flow cytometry; type: cell-based, human; details: normal G1 checkpoint, at least up to 50 μM CBP501
# Experimental: The medium was aspirated, fresh medium without these compounds was added and the cells were incubated for an additional 45 hr. The cells including floating cells were harvested using trypsin-EDTA solution, incubated with Krishan's solution and analyzed for DNA content by flow cytometry as previously described.
# MIAPaCa2 [4] = experiment: Sensitization of MIAPaCa2 to bleomycin or adriamycin, % sub-G1 cells by flow cytometry; type: cell-based, human; details: bleomycine 10 μg/ml or adriamycin 1 μg/ml, 3 hours then 21 hours
# Experimental: Cell culture A human T-cell leukemia-derived cell line, Jurkat, was cultured in RPMI 1640 (Sigma) supplemented with 10% fetal calf serum (IBL: Immuno-Biological Laboratories, Gunma, Japan) at 37° C./5% CO2. Human pancreatic cancer derived cell line, MIAPaCa2 was cultured in DMEM with 10% fetal calf serum at 37° C./5% CO2.
# The G2 checkpoint abrogating activity of various compounds at different doses on human pancreatic cancer derived cell line MIAPaCa2 treated with bleomycine (Bleo) or adriamycin (ADR) was studied. Briefly, cells were incubated with the compounds and bleomycine (10 μg/ml) or adriamycin (1 μg/ml) for 3 hours. The medium was changed and incubated for an additional 21 hours. Harvested cells were stained for DNA by propium iodide and analyzed with flow cytometry as previously described. The % of the sub-G1 cell population is indicated as dead cells in FIG. 3.
# [5] = Human serum treatment analysis, residual G2 checkpoint abrogating activity; type: in vitro ADME; details: d-type amino acid peptides compared with l-type peptide such as CBP413
# Experimental: Serum analysis was performed to determine the stability of peptides in mouse and human serum. Briefly, peptides (10 mM or 2.5 mM) were incubated with freshly prepared human serum at 37 degrees for 1 hr. CBP50 (10 mM) was incubated with freshly prepared mouse serum for 1 hr at 37 degree. Jurkat cells were treated with the serum with or without peptides and bleomycin (40 μg/ml) and incubated for 24 hr. The population of G2 phase cells was determined by flow cytometry as previously described. The residual G2 checkpoint abrogating activity of serum treated peptides were determined by comparing the % G2 cells of the treated serum and the standard curve produced with medium treated peptides, bleomycin and Jurkat cells (Table 5A).
# [6] = Mouse serum treatment analysis, residual peptide by HPLC; type: in vitro ADME; details: 1 hr at 37 degree, read-out: Residual peptide after 1 hr human serum treatment (Mouse serum treatment analysis)
# [7] = test system: MIAPaCa2 human pancreatic carcinoma cells; experiment: Colony formation analysis of MIAPaCa2 cells; type: cell-based; details: CBP501 with cisplatin or oxaliplatin (1, 3 or 9 μg/ml), three hours then 10 days
# Experimental: Briefly, cells were plated at 300 cells/well in 6 well plates, incubated overnight, and treated with the compounds for three hours. The medium was changed and cultured for an additional 10 days. Cells were subsequently fixed with 70% methanol, stained with 0.1% crystal violet and visualized.
# HUVEC [8] = experiment: Growth of normal human umbilical endothelial cells (HUVEC); type: cell-based
# Experimental: Similar studies were performed using normal human umbilical endothelial cells (HUVEC).
# MIAPaCa2 [9] = experiment: Growth inhibition analysis of MIAPaCa2 using alamar blue; type: cell-based, human
# Experimental: The medium was changed and incubated an additional 24, 48 or 72 hour. Following incubation, 20 μl of alamarBlue 90% reagent was added to each well for another 6 hours for detection of cell viability by fluorescent intensity. Fluorescent intensity was measured using a Spectrafluor Plus plate reader with exitation 530 nm and emission 590 nm. The IC50 was calculated (Table 6).
# [10] = test system: MIAPaCa2 human pancreatic carcinoma cells; experiment: MIAPaCa2 human pancreatic carcinoma subcutaneous tumor in scid mice; type: in vivo, mouse
# Experimental: To study in vivo efficacy of the compounds, MIAPaCa2 human pancreatic carcinoma cells were implanted subcutaneously in scid mice. The treatment was initiated when the size of the primary tumor became 0.1 cm3 (Day0) or larger, e.g., 7 or 8 mm in diameter. CDDP (3 mg/kg) and CBP 501 (10 or 40 mg/kg) were intra-peritoneally administered alone or in combination. Tumor sizes were measured using calipers three times a week, and volumes were calculated using the formula: weight(mg)=[width (mm)2×length (mm)]/2. Mean tumor sizes for each treatment group are plotted (n=4) against the days after the start of treatment (FIG. 10).
# [11] = biological target: T1, recombinant human full length Chk1 (Homo sapiens, UniProt O14757); experiment: In vitro kinase inhibition (CycLex), phosphorylation of serine 216 on GST-Cdc25C; type: biochemical
# T1 construct: baculovirus derived recombinant human full length Chk1 with histidine tag; histidine tag; host or cells: baculovirus system (insect cells)
# T1 sequence (O14757 1-476): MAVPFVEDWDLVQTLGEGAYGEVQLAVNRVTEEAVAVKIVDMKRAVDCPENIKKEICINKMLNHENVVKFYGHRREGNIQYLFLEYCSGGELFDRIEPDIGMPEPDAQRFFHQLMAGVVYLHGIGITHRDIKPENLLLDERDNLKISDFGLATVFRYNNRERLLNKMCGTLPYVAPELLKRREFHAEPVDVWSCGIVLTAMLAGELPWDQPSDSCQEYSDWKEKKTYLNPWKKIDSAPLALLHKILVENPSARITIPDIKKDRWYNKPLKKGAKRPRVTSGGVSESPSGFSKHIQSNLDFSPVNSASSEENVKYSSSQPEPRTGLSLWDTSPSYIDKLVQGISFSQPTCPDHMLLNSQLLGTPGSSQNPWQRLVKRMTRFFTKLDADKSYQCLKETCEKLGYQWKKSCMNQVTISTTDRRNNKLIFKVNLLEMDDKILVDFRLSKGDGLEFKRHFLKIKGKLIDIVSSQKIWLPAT
# Experimental: (§1) In vitro kinase inhibition analysis was performed by CycLex, Co. Ltd., Nagano, Japan. Briefly, baculovirus derived recombinant human full length Chk1 with histidine tag or E. Coli derived recombinant human full length Chk2 fused with GST were used as kinases. E. Coli derived recombinant GST-Cdc25C (amino acis 167–267) was used as a substrate. Reaction conditions were 20 mM Hepes-KOH (pH7.5), 1 mM DTT, […] BSA, 10 mM MgCl2 and […] ATP at 30 degree for 60 min. The phosphorylation of serine 216 on GST-Cdc25C was detected by anti-Cdc25C-phosphorylated S216 antibody with enzyme linked immune assay.
# [12] = biological target: T2, recombinant human full length Chk2 (Homo sapiens, UniProt O96017); experiment: as above; type: biochemical
# T2 construct: E. Coli derived recombinant human full length Chk2 fused with GST; host or cells: E. coli
# Experimental: as §1
# T2 sequence (O96017 whole entry, the tested form may be a part): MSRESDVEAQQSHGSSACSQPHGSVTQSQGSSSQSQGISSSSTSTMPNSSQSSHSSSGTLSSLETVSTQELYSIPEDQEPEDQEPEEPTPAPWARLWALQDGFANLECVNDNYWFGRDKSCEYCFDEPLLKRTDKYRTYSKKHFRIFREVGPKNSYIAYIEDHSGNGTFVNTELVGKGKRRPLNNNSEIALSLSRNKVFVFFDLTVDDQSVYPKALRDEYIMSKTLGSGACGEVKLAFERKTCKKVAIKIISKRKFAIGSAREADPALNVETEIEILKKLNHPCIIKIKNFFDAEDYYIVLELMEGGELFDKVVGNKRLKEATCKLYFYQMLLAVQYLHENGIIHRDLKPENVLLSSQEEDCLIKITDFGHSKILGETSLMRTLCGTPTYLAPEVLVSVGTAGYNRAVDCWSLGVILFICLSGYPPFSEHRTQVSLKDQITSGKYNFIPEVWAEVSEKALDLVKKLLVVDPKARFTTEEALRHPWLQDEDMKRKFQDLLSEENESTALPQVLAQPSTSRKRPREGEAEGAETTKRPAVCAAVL
SMILES,G2 abrogating dose (Jurkat cells [1]),Non specific toxicity (M checkpoint abrogation) (in words) (Jurkat cells [2]),Sensitization of HUVEC cells to cisplatin (in words) (HUVEC [3]),"Sensitization of MIAPaCa2 cells to bleomycin and adriamycin (% sub-G1, in words) (MIAPaCa2 [4])",Stability in serum (in words) [5],"remaining at 1 h, 10 mM [6]","Effect on cyto-toxic activity of cisplatin and oxaliplatin, colony formation (in words) [7]","Effect on growth of HUVEC cells, peptide alone (in words) (HUVEC [8])",Cell growth inhibition alone (in words) (MIAPaCa2 [9]; compared with cisplatin),Cell growth suppression combined with 10 μM of cisplatin (in words) (MIAPaCa2 [9]; with 10 μM cisplatin),"Tumor growth, CBP501 treatment alone (in words) ([10]; CBP501 10 or 40 mg/kg intra-peritoneal)",Anti-tumor activity of cisplatin in combination (in words) ([10]; CDDP 3 mg/kg with CBP501 10 or 40 mg/kg intra-peritoneal),Solubility in water (in words) (Solubility in water),IC50 [11],IC50 [12]
"N=C(N)NCCC[C@@H](NC(=O)[C@@H](CCCNC(=N)N)NC(=O)[C@@H](CCC(N)=O)NC(=O)[C@@H](CCCNC(=N)N)NC(=O)[C@@H](CCCNC(=N)N)NC(=O)[C@@H](CCCNC(=N)N)NC(=O)[C@@H](CC1CCCCC1)NC(=O)[C@@H](Cc1c(F)c(F)c(F)c(F)c1F)NC(=O)[C@@H](CO)NC(=O)[C@@H](Cc1c[nH]c2ccccc12)NC(=O)[C@@H](CO)NC(=O)[C@H](N)Cc1ccc(C(=O)c2ccccc2)cc1)C(=O)O [CBP501, (d-Bpa)(d-Ser)(d-Trp)(d-Ser)(d-Phe-2,3,4,5,6-F)(d-Cha)(d-Arg)(d-Arg)(d-Arg)(d-Gln)(d-Arg)(d-Arg)] (H-[dBpa][dS][dW][dS][dPhe(F5)][dCha][dR][dR][dR][dQ][dR][dR]-OH; N-terminus and C-terminus assumed)",≧0.39 μM,absent; also recorded: does not affect M phase cell cycle arrest and/or non specific toxicity induced by colchicine,not sensitized,sensitized MIAPaCa2 cells to both bleomycin and adriamycin in a dose dependent manner,more stable in serum,> 90%,enhanced the cyto-toxic activity of both cisplatin and oxaliplatin,does not affect the growth of HUVEC cells,inhibits cell growth better than cisplatin in molar dose,suppressed cell growth at a much lower dose,suppresses the growth of human pancreatic cancer cell in vivo,increased the anti-tumor activity of cisplatin,soluble in water,–,–
"N=C(N)NCCC[C@@H](NC(=O)[C@@H](CCCNC(=N)N)NC(=O)[C@@H](CCC(N)=O)NC(=O)[C@@H](CCCNC(=N)N)NC(=O)[C@@H](CCCNC(=N)N)NC(=O)[C@@H](CCCNC(=N)N)NC(=O)[C@@H](CC1CCCCC1)NC(=O)[C@@H](Cc1c(F)c(F)c(F)c(F)c1F)NC(=O)[C@@H](CC(=O)O)NC(=O)[C@@H](CO)NC(=O)[C@@H](Cc1c[nH]c2ccccc12)NC(=O)[C@@H](CO)NC(=O)[C@H](N)Cc1ccc(C(=O)c2ccccc2)cc1)C(=O)O [CBP506, (d-Bpa)(d-Ser)(d-Trp)(d-Ser)(d-Asp)(d-Phe-2,3,4,5,6-F)(d-Cha)(d-Arg)(d-Arg)(d-Arg)(d-Gln)(d-Arg)(d-Arg)] (H-[dBpa][dS][dW][dS][dD][dPhe(F5)][dCha][dR][dR][dR][dQ][dR][dR]-OH; N-terminus and C-terminus assumed)",–,–,–,–,–,–,–,–,–,–,–,–,–,37.6 µM,67 µM
